Tests used:
A431 cells [1] = assay: Intracellular ATP assay (CellTiter-Glo 2.0); assay type: cell-based, human
Procedure: (§1) CellTiter-Glo® 2.0 assay kits (Promega Corporation), a luminescence based assay quantitating the amount of ATP present in cells, were used to determine intracellular ATP levels in cultures of A431 and MM649 exposed to two concentrations (300 μM and 500 μM) of Compound 1. Again, cells were plated at a density of 10,000 cells per well into a clear bottomed black 96-well plates (in 100 μl of complete medium) and incubated at 37° C., 5% CO2 overnight. At the time of assay, media was aspirated from each well and 50 μl of fresh medium was inserted. Stock solutions of Compound 1 were diluted to 2× final assay concentrations (1 mM and 600 μM) and 50 μl of these dilutions added to the required wells. Ethanol only control solutions were also compiled and administered. At the indicated time points, media was gently removed making sure not to disturb the cells and 100 μl of CellTiter-Glo® 2.0 Reagent added. The resultant plate was mixed on an orbital shaker for 2 mins to induce cell lysis after which it was incubated in the dark for 10 mins. Following this, the luminescent signal in each well was determined. Luminescent signals from compound treated wells were normalised to Vehicle treated wells and expressed as % intracellular ATP vs. time.

MM649 cells [2] = assay: Intracellular ATP assay (CellTiter-Glo 2.0); assay type: cell-based, human
Procedure: as §1

A431 cells [3] = assay: Calreticulin externalization assay (flow cytometry); assay type: cell-based, human; conditions: within 60 minutes of treatment
Procedure: (§2) Calreticulin externalization was determined as previously detailed (Gomez-Cadena et al. 2016). Briefly, cells (A431, MM649, B16-OVA) cultured in complete medium at 37° C., 5% CO2 were detached via trypsinisation, centrifuged at 1,200 rpm and washed ×2 with fresh medium. After an additional round of centrifugation, the resultant cell pellet was resuspended at a concentration of 1×10^6 cells/ml, after which epoxytigliane was added to a final concentration of 500 or 300 μM. Ethanol only controls were also performed. Cell suspensions were incubated at 37° C., 5% CO2 and at the indicated timepoints, 200 μl of sample was removed and incubated with LIVE/DEAD fixable far red stain for 5 mins on ice. Following this, cells were pelleted at 1,200 rpm for 4 mins and washed ×1 with PBS. 500 μl of PBS, 0.25% formaldehyde was then added to each pellet to perform a light fixation without compromising plasma membrane integrity. […]
(§3) Samples were gated by FSC-H v FSC-A first to identify single cells, after which the LIVE/DEAD stain (Ex: 640 nm, Em: 670/14) negative (intact cell) population was analysed for green fluorescence (Ex: 488 nm, Em: 530/30; calreticulin externalization). Mean fluorescence intensity values were subsequently determined and graphed versus time.

MM649 cells [4] = assay: as above; assay type: cell-based, human; conditions: within 60 minutes of treatment
Procedure: as §2, §3

[5] = test system: CD11c+ BMDCs with B16-OVA cells; assay: BMDC uptake of epoxytigliane treated B16-OVA cells; assay type: cell-based, C57Bl/6 mice
Procedure: The tibias and […] from four 7-8 week old C57Bl/6 mice were first surgically removed under sterile conditions. The marrow was flushed from the bone cavity with 10 ml of ice cold R10 media (using a 27G needle/syringe into a 50 ml polypropylene tube). Cells were pelleted at 1,500 rpm for 5 mins and washed ×2 with ice cold R10 media. After resuspension of the pellet into 10 ml of ice cold R10 medium, cells were counted using an improved haemocytometer and plated at a density of 2×10^6 cells per plate (petri dish) in 10 ml of R10 supplemented with 20 ng/ml murine GM-CSF. All plates were incubated at 37° C., 5% CO2 and at day 3 an additional 10 ml R10 with 20 ng/ml GM-CSF was added. Cells were again fed at day 6 and used for downstream assays on day 7.
Prior to co-incubation with BMDCs, B16-OVA cells were trypsinised, centrifuged at 1,200 rpm for 4 mins to pellet cells and washed ×2 with complete medium. Cells were then stained with 2 μM Cell Tracker Green in complete medium for 45 mins, after which they were pelleted and washed ×2 as above. Labelled B16-OVA cells were subsequently treated with Compounds 1, 2, 3 and 4 at two concentrations (500 or 300 μM) in media at a density of 1×10^6 cells/ml for 30 and 60 mins, after which cells were pelleted via centrifugation, supernatant removed via aspiration and the cell pellet washed ×1 with complete media. After the wash, the treated cells were resuspended in R10 media, inserted into the wells of a 6-well plate (Corning, #3471. Ultra low attachment surface) and BMDCs added. Co-cultures were incubated for 4 h after which cell suspensions were transferred to a microfuge tube and centrifuged at 1,500 rpm for 5 mins. Pellets were resuspended in 100 μl FACs buffer containing anti-CD11c-APC and incubated for 10 mins at 4° C. Cells were again pelleted, washed ×1 with FACs buffer and then fixed using PBS, 1% formaldehyde for 10 mins. After centrifugation and removal of the supernatant, cells were resuspended in 500 μl FACs buffer in preparation for flow cytometry.
Samples were first gated by FSC-H v FSC-A, then SSC-H v SS-A to identify single cells. The proportion of CD11c^+ cells (Ex: 640 nm, Em: 670/14) with CMFDAmid (Ex: 488 nm, Em: 530/30) were then determined for treated and untreated cells as a percentage of all CD11c^+ cells.

## C/C=C(\C)C(=O)O[C@@H]1[C@@H](C)[C@@]2(O)[C@H]([C@@H]3C(C)(C)[C@]13OC(=O)[C@@H](C)CC)[C@@H]1O[C@]1(CO)[C@@H](O)[C@]1(O)C(=O)C(C)=C[C@H]12 [Compound 1, 12-tigloyl-13-(2-methylbutanoyl)-6,7-epoxy-4,5,9,12,13,20-hexahydroxy-1-tiglien-3-one]
A431 cells [1]; 300 μM, after 120 minutes
  intracellular ATP: approximately 50 % of the pre-treatment level
A431 cells [1]; 500 μM, after 60 minutes
  intracellular ATP levels: almost undetectable
MM649 cells [2]; 300 μM, after 120 minutes
  intracellular ATP: approximately 50 % of the pre-treatment level
MM649 cells [2]; 500 μM, after 60 minutes
  intracellular ATP levels: almost undetectable
A431 cells [3]
  calreticulin externalisation (mean fluorescence intensity): significant increases in mean fluorescence intensity
MM649 cells [4]
  calreticulin externalisation (mean fluorescence intensity): significant increases in mean fluorescence intensity
[5]; 500 μM compared to the use of 300 μM
  dependence of antigen uptake on concentration and treatment time: antigen uptake occurs to a greater extent after a shorter treatment time
[5]; B16-OVA treated at 500 or 300 μM for 30 and 60 mins, 4 h co-culture
  uptake of dying cancer cell fragments by CD11c+ dendritic cells/macrophages (BMDCs): promotes the uptake
